Results: patent US12473324B2, “Triazine-based amphiphilic compound and use thereof” (INDUSTRY-UNIVERSITY COOPERATION FOUNDATION HANYANG …, priority 2019, dated 2025)

How the values were obtained:
[1] = Hydrodynamic radius (Rh) of micelles by dynamic light scattering (DLS); format: physicochemical; conditions: 1.0 wt % detergent
Description: A method of measuring the radius of micelle is not particularly limited, but a method widely known in the art may be used, and for example, the radius of micelle may be measured using a dynamic light scattering (DLS) experiment.
(§1) Specifically, the critical micelle concentrations (CMCs) were measured using a fluorescent dye, diphenylhexatriene (DPH), and the hydrodynamic radii (Rh) of micelles formed by each preparation (1.0 wt %) were determined by a dynamic light scattering (DLS) experiment. The measured results are shown in Table 1 compared to DDM which is an existing amphiphilic molecule (detergent).

[2] = Solubility of detergent (Table 1); format: physicochemical
[3] = Critical micelle concentration (CMC) by fluorescent dye diphenylhexatriene (DPH); format: physicochemical; conditions: DPH fluorescence
Description: A method of measuring the CMC is not particularly limited, but a method widely known in the art may be used, and for example, the CMC may be measured by a fluorescent staining method using diphenylhexatriene (DPH).
as §1

[4] = biological target: human β2 adrenergic receptor (β2AR) (Homo sapiens, UniProt P07550); test: β2AR stability: [3H]-dihydroalprenolol (DHA) ligand binding assay; conditions: CMC+0.2 wt %, room temperature, 6 days, [3H]-DHA
Chain of human β2 adrenergic receptor (β2AR) (P07550 whole entry): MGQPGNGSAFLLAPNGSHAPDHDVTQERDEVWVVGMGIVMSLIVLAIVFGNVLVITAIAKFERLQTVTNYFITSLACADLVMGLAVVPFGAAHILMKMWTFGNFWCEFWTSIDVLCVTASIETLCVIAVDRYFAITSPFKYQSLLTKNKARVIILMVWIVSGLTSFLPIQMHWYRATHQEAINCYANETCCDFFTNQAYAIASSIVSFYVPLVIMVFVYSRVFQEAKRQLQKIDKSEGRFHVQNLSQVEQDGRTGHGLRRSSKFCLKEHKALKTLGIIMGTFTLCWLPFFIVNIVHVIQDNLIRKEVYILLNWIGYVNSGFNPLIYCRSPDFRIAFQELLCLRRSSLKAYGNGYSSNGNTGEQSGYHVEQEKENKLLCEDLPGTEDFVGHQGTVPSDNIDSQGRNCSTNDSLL
Description: Experiments were performed to measure the structural stability of the human β2 adrenergic receptor (β2AR) and G-protein-coupled receptor (GPCR) by TSMs, TTGs and TEMs. That is, a receptor purified by DDM was subjected to amphiphilic molecular exchange when diluted with a buffer solution containing only each of TSMs, TTGs and TEMs without cholesteryl hemisuccinate (CHS) or a buffer solution containing CHS and DDM. The final concentration of the amphiphilic molecule was CMC+0.2 wt %, and the ligand binding properties of the receptor were measured by binding of [^3H]-dihydroalprenolol ([^3H]-DHA). Specifically, the following method was used for a radioligand binding test. β2AR was purified using 0.1% DDM (D. M. Rosenbaum et al., Science, 2007, 318, 1266-1273.) and finally concentrated to about 10 mg/ml (about 200 μM). A master binding mixture containing 10 nM [^3H]-dihydroalprenolol (DHA) supplemented with 0.5 mg/ml BSA in 0.2% amphiphilic compounds (DDM, TSMs, TTGs or TEMs) was prepared using β2AR purified with DDM. Receptors purified with DDM, TSMs, TTGs or TEMs were incubated with 10 nM [^3H]-DHA at room temperature for 6 days. The mixture was loaded onto a G-50 column and a flow through was collected with 1 ml of a binding buffer (20 mM HEPES supplemented with 0.5 mg/ml BSA and 20×CMC each amphiphilic compound, pH 7.5, 100 mM NaCl), and filled with 15 ml of a scintillation fluid. Receptor-bound [^3H]-DHA was measured by a scintillation counter (Beckman). The binding of [^3H]-DHA is shown as a column graph.

[5] = tested on: leucine transporter (LeuT); test: LeuT structural stability: [3H]-Leu binding by scintillation proximity assay (SPA); format: biochemical, Aquifex aeolicus; conditions: CMC+0.04 wt % or CMC+0.2 wt %, room temperature, 13-day incubation, [3H]-Leu SPA
Description: Experiments were performed to measure the structural stability of the LeuT protein by TSMs, TTGs and TEMs. Each amphiphilic compound was used at a concentration of (a) CMC+0.04 wt % or (b) CMC+0.2 wt %, and the substrate binding properties of LeuT were measured using [^3H]-Leu via scintillation proximity assay (SPA). The measurement was performed at regular intervals over the course of a 13-day and 12-day incubation at room temperature, respectively.
Specifically, a wild-type leucine transporter (LeuT) derived from the thermophilic bacterium Aquifex aeolicus was purified by a previously described method (Nature 1998, 392, 353-358 by G. Deckert et al.). LeuT was expressed in E. coli C41 (DE3) transformed with pET16b encoding the C-terminal 8×His-tagged transporter (expression plasmids were provided from Dr E. Gouaux, Vollum Institute, Portland, Oregon, USA). In summary, after a bacterial membrane was isolated and solubilized in 1 wt % DDM, the protein was bound to Ni^2+-NTA resin (Life Technologies, Denmark), and eluted in 20 mM Tris-HCl (pH 8.0), 1 mM NaCl, 199 mM KCl, 0.05% (w/v) DDM and 300 mM imidazole. Then, the purified LeuT (0.5 mg/ml) was diluted with buffers supplemented with TSMs, TTGs, TEMs or DDM at a final concentration of CMC+0.04% (w/v) or CMC+0.2% (w/v) except for DDM and imidazole in the equivalent buffer described above. Protein samples were incubated at room temperature for 13 days, centrifuged at a specified time, and protein properties were confirmed by measuring [^3H]-Leucine binding ability using SPA. SPA was performed with 5 μL of each protein sample in a buffer containing 450 mM NaCl and each of TSMs and TEMs (or DDM). The SPA reaction was performed in the presence of 20 nM [^3H]-Leucine and 1.25 mg/ml copper chelate (His-Tag) YSi beads (PerkinElmer, Denmark). Overall [^3H]-Leucine coupling to each sample was measured using a MicroBeta liquid scintillation counter (Perkin Elmer).

μ-opioid receptor (MOR) = μ-opioid receptor (MOR) (Mus musculus, UniProt P42866); test: MOR thermal stability test (CPM dye, melting point Tm); format: biochemical; conditions: 0.5 wt % compound, CPM fluorescence, 20° C. to 65° C.
Chain of μ-opioid receptor (MOR) (P42866 whole entry): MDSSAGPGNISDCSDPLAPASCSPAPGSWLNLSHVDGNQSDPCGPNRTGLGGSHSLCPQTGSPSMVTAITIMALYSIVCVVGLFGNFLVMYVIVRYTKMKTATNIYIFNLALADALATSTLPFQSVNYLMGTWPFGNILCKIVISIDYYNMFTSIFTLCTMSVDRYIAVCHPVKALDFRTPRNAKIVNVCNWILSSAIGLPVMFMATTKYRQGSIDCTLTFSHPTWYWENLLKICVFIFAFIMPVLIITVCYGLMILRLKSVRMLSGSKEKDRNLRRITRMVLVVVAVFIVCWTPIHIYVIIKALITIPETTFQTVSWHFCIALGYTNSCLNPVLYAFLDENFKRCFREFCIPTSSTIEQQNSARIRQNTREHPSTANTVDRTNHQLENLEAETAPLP
Description: An N-[4-(7-diethylamino-4-methyl-3-coumarinyl)phenyl]maleimide (CPM) dye dissolved in DMSO (3 mg/ml) was diluted 40× in a buffer including 20 mM HEPES pH 7.5 and 150 mM NaCl. […] After 1 hour at room temperature, a compound was prepared at a final concentration of 0.5 wt % by diluting the receptor solution 2× in 20 mM HEPES pH 7.5, 150 mM NaCl. After […] of the diluted CPM dye was added thereto, the receptor stability of different compounds was measured by recording the fluorescence spectra (excitation 387 nm) every 5° C. from 20° C. to 65° C. while culturing at each temperature for 2 minutes. The melting point (Tm) was calculated by plotting the read value at 470 nm and fitting a non-linear regression curve using GraphPad Prism.

Compound | Rh (nm) [1] [nm] | solubility [2] [%] | CMC [3] [mM] | β2AR long-term ligand binding retention [4] | LeuT substrate binding properties over incubation [5] | MOR melting point (Tm) (μ-opioid receptor (MOR)) [°C]
CCCCCCCSc1nc(NC(CO[C@@H]2O[C@H](CO)[C@@H](O[C@H]3O[C@H](CO)[C@@H](O)[C@H](O)[C@H]3O)[C@H](O)[C@H]2O)CO[C@@H]2O[C@H](CO)[C@@H](O[C@H]3O[C@H](CO)[C@@H](O)[C@H](O)[C@H]3O)[C@H](O)[C@H]2O)nc(SCCCCCCC)n1 [TSM-T7] | 3.6 ± 0.1 | ~10 | ~0.01 | better in maintaining the ligand binding ability of the receptor than DDM | – | –
CCCCCCCCCCCOc1nc(NC(CO[C@@H]2O[C@H](CO)[C@@H](O[C@H]3O[C@H](CO)[C@@H](O)[C@H](O)[C@H]3O)[C@H](O)[C@H]2O)CO[C@@H]2O[C@H](CO)[C@@H](O[C@H]3O[C@H](CO)[C@@H](O)[C@H](O)[C@H]3O)[C@H](O)[C@H]2O)nc(OCCCCCCCCCCC)n1 [TSM-E11] | 56.2 ± 9.9 | ~1 | ~0.002 | better in maintaining the ligand binding ability of the receptor than DDM | – | –
CCCCCCCCCCSc1nc(NC(CO[C@@H]2O[C@H](CO)[C@@H](O)[C@H](O)[C@H]2O)(CO[C@@H]2O[C@H](CO)[C@@H](O)[C@H](O)[C@H]2O)CO[C@@H]2O[C@H](CO)[C@@H](O)[C@H](O)[C@H]2O)nc(SCCCCCCCCCC)n1 [TTG-T10] | 3.6 ± 0.10 | ~10 | ~0.006 | better in maintaining the ligand binding ability of the receptor than DDM | best substrate binding activity | –
CCCCCCCCCCCCSc1nc(NC(CO[C@@H]2O[C@H](CO)[C@@H](O)[C@H](O)[C@H]2O)(CO[C@@H]2O[C@H](CO)[C@@H](O)[C@H](O)[C@H]2O)CO[C@@H]2O[C@H](CO)[C@@H](O)[C@H](O)[C@H]2O)nc(SCCCCCCCCCCCC)n1 [TTG-T12] | 5.5 ± 0.20 | ~5 | ~0.0035 | better in maintaining the ligand binding ability of the receptor than DDM | best substrate binding activity | –
CCCCCCCCCCOc1nc(NC(CO[C@@H]2O[C@H](CO)[C@@H](O[C@H]3O[C@H](CO)[C@@H](O)[C@H](O)[C@H]3O)[C@H](O)[C@H]2O)CO[C@@H]2O[C@H](CO)[C@@H](O[C@H]3O[C@H](CO)[C@@H](O)[C@H](O)[C@H]3O)[C@H](O)[C@H]2O)nc(OCCCCCCCCCC)n1 [TSM-E10] | 8.7 ± 0.7 | ~5 | ~0.004 | better in maintaining the ligand binding ability of the receptor than DDM | – | 48.9
CCCCCCCCCSc1nc(NC(CO[C@@H]2O[C@H](CO)[C@@H](O)[C@H](O)[C@H]2O)(CO[C@@H]2O[C@H](CO)[C@@H](O)[C@H](O)[C@H]2O)CO[C@@H]2O[C@H](CO)[C@@H](O)[C@H](O)[C@H]2O)nc(SCCCCCCCCC)n1 [TTG-T9] | 3.3 ± 0.11 | ~10 | ~0.010 | better in maintaining the ligand binding ability of the receptor than DDM | – | –
CCCCCCCCCCCSc1nc(NC(CO[C@@H]2O[C@H](CO)[C@@H](O)[C@H](O)[C@H]2O)(CO[C@@H]2O[C@H](CO)[C@@H](O)[C@H](O)[C@H]2O)CO[C@@H]2O[C@H](CO)[C@@H](O)[C@H](O)[C@H]2O)nc(SCCCCCCCCCCC)n1 [TTG-T11] | 3.7 ± 0.09 | ~10 | ~0.004 | better in maintaining the ligand binding ability of the receptor than DDM | best substrate binding activity | –
CCCCCCCCCSc1nc(NC(CO[C@@H]2O[C@H](CO)[C@@H](O[C@H]3O[C@H](CO)[C@@H](O)[C@H](O)[C@H]3O)[C@H](O)[C@H]2O)CO[C@@H]2O[C@H](CO)[C@@H](O[C@H]3O[C@H](CO)[C@@H](O)[C@H](O)[C@H]3O)[C@H](O)[C@H]2O)nc(SCCCCCCCCC)n1 [TSM-T9] | 5.1 ± 0.1 | ~10 | ~0.004 | better in maintaining the ligand binding ability of the receptor than DDM | best substrate binding activity | –
CCCCCCCCSc1nc(NC(CO[C@@H]2O[C@H](CO)[C@@H](O[C@H]3O[C@H](CO)[C@@H](O)[C@H](O)[C@H]3O)[C@H](O)[C@H]2O)CO[C@@H]2O[C@H](CO)[C@@H](O[C@H]3O[C@H](CO)[C@@H](O)[C@H](O)[C@H]3O)[C@H](O)[C@H]2O)nc(SCCCCCCCC)n1 [TSM-T8] | 4.2 ± 0.0 | ~10 | ~0.006 | better in maintaining the ligand binding ability of the receptor than DDM | – | –
